Patent publication US20190231884A1, “SYNTHETIC PULMONARY SURFACTANT COMPOSITION FOR TREATING LUNG CONDITIONS” (priority 2016, published 2019)
≈ marks a conversion by molar mass, not a printed value.

Key:
[1] = test system: M. tb X51 clinical isolate; assay: microbe, parasite or virus in culture; type: cell-based, Mycobacterium tuberculosis; settings: for GROWTH UNITS (Day 8) / SUSCEPTIBILITY MIC99: X51
[2] = test system: M. tuberculosis H37Rv reference strain; assay: MGIT 960 mycobacterial growth inhibition, H37Rv; type: cell-based, Mycobacterium tuberculosis; settings: for GROWTH UNITS (Day 8) / SUSCEPTIBILITY MIC99: H37Rv
[3] = Linezolid 1 μg/ml, growth control GU 400

CC(=O)NC[C@H]1CN(c2ccc(N3CCOCC3)c(F)c2)C(=O)O1 [Linezolid, (S)-N-[[3-(3-fluoro-4-morpholinylpheny1)-2-oxo-5-oxazolidinyl]methyl] acetamide]
MIC ([1]; Mycobacterium tuberculosis, read-out: Minimum Inhibitory Concentration): 1 µg/mL (≈ 2.96 µM)
GROWTH UNITS (Day 8) ([1]; Linezolid 0.125 μg/ml): 9164
SUSCEPTIBILITY MIC99 ([1]; Linezolid 0.125 μg/ml): − (the GU of the drug-containing tube were more than 400, the results were defined as showing resistance)
GROWTH UNITS (Day 8) ([1]; Linezolid 0.25 μg/ml): 6727
SUSCEPTIBILITY MIC99 ([1]; Linezolid 0.25 μg/ml): − (the GU of the drug-containing tube were more than 400, the results were defined as showing resistance)
GROWTH UNITS (Day 8) ([1]; Linezolid 0.5 μg/ml): 714
SUSCEPTIBILITY MIC99 ([1]; Linezolid 0.5 μg/ml): − (the GU of the drug-containing tube were more than 400, the results were defined as showing resistance)
SUSCEPTIBILITY MIC99 ([1]; Linezolid 1 μg/ml): + (when the GU of the drug-containing tube were less than 400, the results were considered to show susceptibility)
GROWTH UNITS (Day 8) [1, 3]: 0
GROWTH UNITS (Day 8) ([2]; Linezolid 0.125 μg/ml): 12030
SUSCEPTIBILITY MIC99 ([2]; Linezolid 0.125 μg/ml): − (the GU of the drug-containing tube were more than 400, the results were defined as showing resistance)
GROWTH UNITS (Day 8) ([2]; Linezolid 0.25 μg/ml): 12878
SUSCEPTIBILITY MIC99 ([2]; Linezolid 0.25 μg/ml): − (the GU of the drug-containing tube were more than 400, the results were defined as showing resistance)
GROWTH UNITS (Day 8) ([2]; Linezolid 0.5 μg/ml): 4674
SUSCEPTIBILITY MIC99 ([2]; Linezolid 0.5 μg/ml): − (the GU of the drug-containing tube were more than 400, the results were defined as showing resistance)
SUSCEPTIBILITY MIC99 ([2]; Linezolid 1 μg/ml): + (when the GU of the drug-containing tube were less than 400, the results were considered to show susceptibility)
GROWTH UNITS (Day 8) [2, 3]: 377
MIC ([2]; Mycobacterium tuberculosis, H37Rv Strain, read-out: Minimum Inhibitory Concentration): 1 µg/mL (≈ 2.96 µM)
